Data reported in patent publication US7279468B2, “Integrin ligands” (Abbott GmbH & Co. KG, priority 2000, dated 2007).

Biological target: T1, integrin αvβ3 (Homo sapiens, UniProt P05106+P06756)
T1 construct: from tissue; host or cells: human placenta
Assay: Integrin αvβ3 assay (competition between vitronectin and test substance for binding to solid phase-bound integrin αvβ3)
Settings: competition with human vitronectin, integrin αvβ3 from human placenta, comparison in words only
Procedure: For the identification and assessment of integrin αvβ3 ligands, a test system was used which was based on competition between the natural integrin αvβ3 ligand vitronectin and the test substance for binding to solid phase-bound integrin αvβ3.
• Microtiter plates coated with 250 ng/ml of integrin αvβ3 in 0.05 M NaHCO3 pH 9.2; 0.1 ml/well; • saturation with 1% powdered milk/assay buffer; 0.3 ml/well; 0.5 h/RT • 3× washing with 0.05% Tween 20/assay buffer • test substance in 0.1% powdered milk/assay buffer, 50 μl/well 0 μg/ml or […] of human vitronectin (Boehringer Ingelheim T007) in 0.1% powdered milk/assay buffer, 50 μl/well; 1 h/RT • 3× washing with 0.05% Tween 20/assay buffer • 1 μg/ml of anti human vitronectin antibody coupled to peroxidase (Kordia SAVN-APHRP) in 0.1% powdered milk/assay buffer; 0.1 ml/well; 1 h/RT • 3× washing with 0.05% Tween 20/assay buffer • 0.1 ml/well of peroxidase substrate • stop reaction with 0.1 ml/well of 2 M H2SO4 • measurement of the absorption at 450 nm • Integrin αvβ3: Human placenta is solubilized with Nonidet and integrin αvβ3 affinity-purified on a GRGDSPK matrix (elution with EDTA). […]

- IC50 values (concentration of the ligand at which 50% of the ligand is displaced): best result
Compound: O=C(O)CC1CCN(CC(=O)NCc2ccc(Nc3nc4ccccc4[nH]3)cc2)C(=O)c2ccccc21 (stereo not shown) [Example II, [2-(2-{[4-(1H-Benzimidazol-2-ylamino)benzyl]amino}-2-oxoethyl)-1-oxo-2,3,4,5-tetrahydro-1H-2-benzazepin-5-yl]acetic acid]
